The record followed here is patent publication US20140349970A1 (ABBVIE INC., priority 2009, published 2014).

pIC50: −log10 of the molar value. Where only a bound is given, the exact number is not on record here.

For orientation: pIC50 means the negative decadic logarithm of the IC50, by convention in mol/L. The low end stands for a high IC50, the high end for a low IC50.

The first assay concerns the target T1, Syk catalytic domain (aa 356-635 with a C-terminal His-tag) (Homo sapiens, UniProt P43405).
T1 construct: His-tag (C); made in house
The experiment in a line: In vitro Syk kinase activity measured by trFRET, Syk catalytic domain.
Settings: not given
In kind it is biochemical. The protocol:
In Vitro Syk Kinase Activity Measured by Time-Resolved Fluorescence Resonance Energy Transfer (trFRET)
0.14 nM purified Syk catalytic domain (aa 356-635 with a C-terminal His-tag purified in-house by immobilized metal ion affinity chromatography) was mixed with 0.2 μM peptide substrate (biotin-TYR1, Sequence: Biotin-(Ahx)-GAEEEIYAAFFA-COOH) at varying inhibitor concentrations in reaction buffer: 50 mM MOPSO pH 6.5, 10 mM MgCl2, 2 mM MnCl2, 2.5 mM DTT, 0.01% BSA, 0.1 mM Na3VO4 and 0.001 mM ATP. After about 60 min incubation at rt, the reaction was quenched by addition of EDTA (final concentration: 100 mM) and developed by addition of revelation reagents (final approximate concentrations: 30 mM HEPES pH 7.0, 0.06% BSA, 0.006% Tween-20, 0.24 M KF, 80 ng/mL PT66K (europium labeled anti-phosphotyrosine antibody cat #61T66KLB Cisbio, Bedford, Mass.) and 0.6 μg/mL SAXL (Phycolink streptavidin-allophycocyanin acceptor, cat #PJ255, Prozyme, San Leandro, Calif.). The developed reaction was incubated in the dark either at about 4° C. for about 14 h or for about 60 min at rt, then read via a time-resolved fluorescence detector (Rubystar, BMG) using a 337 nm laser for excitation and monitoring emission wavelengths at 665 nm. Within the linear range of the assay, the observed signal at 665 nm was directly related to phosphorylated product and can be used to calculate the IC50 values.
MOPSO buffer contains: 50 mM MOPSO pH 6.5, 10 mM MgCl2, 2 mM MnCl2, 2.5 mM DTT, 0.01% BSA, and 0.1 mM Na3VO4 HEPES buffer contains: 50 mM HEPES pH 7.1, 2.5 mM DTT, 10 mM MgCl2, 2 mM MnCl2, 0.01% BSA, and 0.1 mM Na3VO4 MOPS buffer contains: 20 mM MOPS pH 7.2, 10 mM MgCl2, 5 mM EGTA, 5 mM Beta-phosphoglycerol, 1 mM Na3VO4, 0.01% Triton-X-100 and 1 mM DTT
Biotin-TYR1-peptide sequence: Biotin-(Ahx)-GAEEEIYAAFFA-COOH Biotin-TYR2-peptide sequence: Biotin-(Ahx)-AEEEYFFLFA-amide KinEASE 51 peptides were purchased from Cisbio (cat #62ST0PEB, Bedford, Mass.)
PT66K was purchased from Cisbio (cat #61T66KLB, Bedford, Mass.) EuSTK was purchased from Cisbio (cat #62ST0PEB, Bedford, Mass.) SAXL was purchased from Prozyme (cat #PJ25S, San Leandro, Calif.) Human T-Blasts IL-2 pSTAT5 Cellular Assay
In turn, `CN(C)S(=O)(=O)c1ccc(-c2nc(C3CCCCC3)n3c2cnc2[nH]ccc23)cc1` [AC.3.29] had a pIC50 of 6.00 to 7.00.
On the same count and under the same terms, with `CC(C)S(=O)(=O)c1ccc(-c2nc(C3CCCCC3)n3c2cnc2[nH]ccc23)cc1` [AC.3.30] the figure was 6.00 to 7.00; with `Cc1ccc(-c2nc(C3CCCCC3)n3c2cnc2[nH]ccc23)cc1` [AC.3.32], 6.00 to 7.00.
For `CC(C)(CO)c1ccc(-c2ncn3c2cnc2[nH]ccc23)cc1` [AC.4.1], the pIC50 is > 7.00.
`OCc1ccc(-c2ncn3c2cnc2[nH]ccc23)cc1` [AC.4.2]: the pIC50 is 6.00 to 7.00.
In turn, `COc1cc(-c2ncn3c2cnc2[nH]ccc23)ccn1` [AC.4.3] had a pIC50 of 6.00 to 7.00.
Still for that read-out and setting: with `CC(=O)c1cc(-c2ncn3c2cnc2[nH]ccc23)ccn1` [AC.4.4] the figure was 6.00 to 7.00; with `Cc1cc(-c2ncn3c2cnc2[nH]ccc23)ccn1` [AC.4.5], 6.00 to 7.00.
On the same count and under the same terms, with `CC(C)(O)c1ccc(-c2ncn3c2cnc2[nH]ccc23)cc1F` [AC.4.6] the figure was > 7.00.
In the case of `CCCNC(=O)c1ccc(-c2ncn3c2cnc2[nH]ccc23)cc1` [AC.4.7], the pIC50 was 6.00 to 7.00.
Same read-out and setting: the value for `COc1ccc(-c2ncn3c2cnc2[nH]ccc23)cc1OC` [AC.4.8] was > 7.00; that for `COc1ccc(-c2ncn3c2cnc2[nH]ccc23)cc1Cl` [AC.4.9] was > 7.00; that for `COc1ccc(-c2ncn3c2cnc2[nH]ccc23)cc1C` [AC.4.10] was > 7.00.
`CC(=O)N1CCC[C@@H]1c1nc(-c2ccc(C(C)(C)O)cc2)c2cnc3[nH]ccc3n12` [AC.5.1] had a pIC50 of 6.00 to 7.00.
Same read-out and setting: with `CC(=O)N[C@@H]1C[C@H](c2nc(-c3ccc(C(C)(C)O)cc3)c3cnc4[nH]ccc4n23)N(S(=O)(=O)C2CC2)C1` [AC.5.2] the figure was 6.00 to 7.00; with `Cc1ncccc1-c1nc(-c2ccc(C(C)(C)O)cc2)c2cnc3[nH]ccc3n12` [AC.5.3], 6.00 to 7.00; with `CC(C)(O)c1ccc(-c2ncn3c2cnc2[nH]cc(C4=CCNCC4)c23)cc1` [AC.5.4], 5.00 to 6.00.
In turn, `CC(C)(O)c1ccc(-c2nc(CCCN)n3c2cnc2[nH]ccc23)cc1` [AC.5.5] gave a pIC50 of 6.00 to 7.00.
The same measure, in the same setting: with `CC(C)(O)c1ccc(-c2nc(CN)n3c2cnc2[nH]ccc23)cc1` [AC.5.6, 2-(4-(1-(Aminomethyl)-6H-imidazo[1,5-a]pyrrolo[2,3-e]pyrazin-3-yl)phenyl)propan-2-ol] the figure was 5.00 to 6.00; with `CC(C)(O)c1ccc(-c2nc(CNC(=O)CO)n3c2cnc2[nH]ccc23)cc1` [AC.5.7], 6.00 to 7.00; with `CC(C)(O)c1ccc(-c2nc(C3CC3)n3c2cnc2[nH]ccc23)cc1` [AC.5.8], > 7.00.
Still for that read-out and setting: the value for `CC(=O)N1CCC[C@H]1c1nc(-c2ccc(C(C)(C)O)cc2)c2cnc3[nH]ccc3n12` [AC.5.9] was 5.00 to 6.00; that for `CC(C)(O)c1ccc(-c2nc(C3CCOCC3)n3c2cnc2[nH]cc(C#N)c23)cc1` [AE.1.1] was 5.00 to 6.00; that for `Cc1nc(-c2ccc(CN3CCOCC3)cc2)c2cnc3[nH]ccc3n12` [AH.1.1] was 6.00 to 7.00.
Consider `Cn1ncc2cnc3[nH]c(-c4cccn4CC(=O)O)cc3c21` [AN.1.2, 2-(2-(1-methyl-1,6-dihydropyrazolo[3,4-d]pyrrolo[2,3-b]pyridin-7-yl)-1H-pyrrol-1-yl)acetic acid], for which the pIC50 is < 5.00.
For `Cn1cc(-c2cc3c(ncc4cnn(C)c43)[nH]2)c2ccc(C(=O)O)cc21` [AN.1.3], the pIC50 is > 7.00.
The same measure, in the same setting: with `Cn1nc(-c2ccc(S(C)(=O)=O)cc2)c2cnc3[nH]ccc3c21` [AR.1.1] the figure was 6.00 to 7.00; with `COc1ccc(-c2nn(C)c3c2cnc2[nH]ccc23)cc1` [AU.1.1, 3-(4-methoxyphenyl)-1-methyl-1,6-dihydropyrazolo[3,4-d]pyrrolo[2,3-b]pyridine], > 7.00.
In the case of `COc1ccc(-c2n[nH]c3c2cnc2[nH]ccc23)cc1` [AU.1.2], the pIC50 was > 7.00.
`COc1ccc(-c2nn(CCO)c3c2cnc2[nH]ccc23)cc1` [AU.1.3] had a pIC50 of 6.00 to 7.00.

The same assay, now with this note: Syk catalytic domain (aa 356-635), trFRET, 0.001 mM ATP.
Regarding `CC(C)(O)c1ccc(-c2nc(-c3cccnc3)n3c2cnc2[nH]ccc23)cc1` [AC.6.1], the pIC50 was > 7.00.
On the same count and under the same terms, the value for `COc1ccc(-c2nn(C)c3c2cnc2[nH]cc(Br)c23)cc1` [AK.1, 8-Bromo-3-(4-methoxyphenyl)-1-methyl-1,6-dihydropyrazolo[3,4-d]pyrrolo[2,3-b]pyridine] was > 7.00; that for `Cn1cc(-c2cc3c(ncc4cnn(C)c43)[nH]2)c2cc(C(=O)O)ccc21` [AN.1, 1-Methyl-3-(1-methyl-1,6-dihydropyrazolo[3,4-d]pyrrolo[2,3-b]pyridin-7-yl)-1H-indole-5-carboxylic acid] was > 7.00; that for `CSc1ccc(-c2nn(C)c3c2cnc2[nH]ccc23)cc1` [AU.1, 1-Methyl-3-(4-(methylthio)phenyl)-1,6-dihydropyrazolo[3,4-d]pyrrolo[2,3-b]pyridine] was > 7.00.
The same measure, in the same setting: with `Cc1nc(-c2ccc(C(C)(C)O)cc2)c2cnc3[nH]cc(Br)c3n12` [AY.1, 2-(4-(8-Bromo-1-methyl-6H-imidazo[1,5-a]pyrrolo[2,3-e]pyrazin-3-yl)phenyl)propan-2-ol] the figure was > 7.00.
The same measure, in the same setting: with `CC(C)(O)c1ccc(-c2nc(C3CCCNC3)n3c2cnc2[nH]ccc23)cc1` (stereo not shown) [D.2.1] the figure was > 7.00.
The compound `CC(C)(O)c1ccc(-c2nc([C@@H]3CCCN(C(=O)C4(C#N)CC4)C3)n3c2cnc2[nH]ccc23)cc1` [D.2.2] gave a pIC50 of 6.00 to 7.00.
Same read-out and setting: the value for `Cn1ncc2cnc3[nH]c(-c4ccc(C(C)(C)O)cc4)c(C#N)c3c21` [D.2.3] was > 7.00.
Still for that read-out and setting: the value for `CC(C)(O)c1ccc(-c2nc(-c3cccnc3CO)n3c2cnc2[nH]ccc23)cc1` [D.2.4] was 6.00 to 7.00; that for `CC(C)(O)c1ccc(-c2nc(-c3cccnc3C#N)n3c2cnc2[nH]ccc23)cc1` [D.3.1] was > 7.00; that for `CN(C)CCNC(=O)Cc1cccc(-c2cc3c(ncc4cnn(C)c43)[nH]2)c1` [Example 1, N-(2-(dimethylamino)ethyl)-2-(3-(1-methyl-1,6-dihydropyrazolo[3,4-d]pyrrolo[2,3-b]pyridin-7-yl)phenyl)acetamide] was 6.00 to 7.00.
On the same count and under the same terms, the value for `c1ccc(-c2nc(C3CCCCC3)n3c2cnc2[nH]ccc23)cc1` [Example 2, 1-Cyclohexyl-3-phenyl-6H-imidazo[1,5-a]pyrrolo[2,3-e]pyrazine] was 5.00 to 6.00; that for `O=C(O)/C=C/c1nc(C2CCCCC2)n2c1cnc1[nH]ccc12` [Example 3, (E)-3-(1-Cyclohexyl-6H-imidazo[1,5-a]pyrrolo[2,3-e]pyrazin-3-yl)acrylic acid] was 6.00 to 7.00.
In turn, `CCc1c(-c2ccc(C(C)(C)O)cc2)[nH]c2ncc3nccn3c12` [Example 4, 2-(4-(1-Ethyl-3H-imidazo[1,2-a]pyrrolo[2,3-e]pyrazin-2-yl)phenyl)propan-2-ol] had a pIC50 of 6.00 to 7.00.
Same read-out and setting: the value for `COc1ccc2c(c1)c(-c1cc3c(ncc4cnc(CCCNC(C)=O)n43)[nH]1)cn2C` [Example 5, N-(3-(7-(5-Methoxy-1-methyl-1H-indol-3-yl)-6H-imidazo[1,5-a]pyrrolo[2,3-e]pyrazin-1-yl)propyl)acetamide] was > 7.00.
Still for that read-out and setting: with `CC(C)(O)c1ccc(-c2nc(-c3cccnc3C#N)n3c2cnc2[nH]ccc23)cc1` [Example 6, 3-(3-(4-(2-Hydroxypropan-2-yl)phenyl)-6H-imidazo[1,5-a]pyrrolo[2,3-e]pyrazin-1-yl)picolinonitrile] the figure was 5.00 to 6.00; with `CC(C)(O)c1ccc(-c2nc(-c3ccccc3CN)n3c2cnc2[nH]ccc23)cc1` [Example 7, 2-(4-(1-(2-(Aminomethyl)phenyl)-6H-imidazo[1,5-a]pyrrolo[2,3-e]pyrazin-3-yl)phenyl)propan-2-ol], 6.00 to 7.00; with `Cn1cc(-c2cc3c(ncc4cnn(C)c43)[nH]2)c2cc(C(=O)NS(C)(=O)=O)ccc21` [Example 8, 1-Methyl-3-(1-methyl-1,6-dihydropyrazolo[3,4-d]pyrrolo[2,3-b]pyridin-7-yl)-N-(methylsulfonyl)-1H-indole-5-carboxamide], > 7.00.
The same measure, in the same setting: the value for `COc1ccc2c(c1)c(-c1cc3c4c(cnc3n1COP(=O)(O)O)cnn4C)cn2C` [Example 9, (7-(5-Methoxy-1-methyl-1H-indol-3-yl)-1-methylpyrazolo[3,4-d]pyrrolo[2,3-b]pyridin-6(1H)-yl)methyl dihydrogen phosphate] was 5.00 to 6.00.
